Assay results as given in US20240391923A1, “METHIONINE ADENOSYLTRANSFERASE 2A INHIBITOR FOR TREATING MTAP DELETION-TYPE CANCER” (SUZHOU GENHOUSE BIO CO., LTD., priority 2022, published 2024).
Where two headings read alike, the source gives them in different places.

Tests used:
[1] = Pharmacokinetic test in rats (IV and PO); format: in vivo; conditions: rat, plasma, SD rats; for half-life: read-out: T½ (converted)
[2] = tested on: SDMA in human colon cancer cell line HCT116; experiment: Cell symmetric dimethylarginine (SDMA) test, In-cell Western, HCT116 (MTAP wild-type); format: cell-based; conditions: Homo sapiens, HCT-116, 96 h
Method in brief: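 HCT116 cells treated 4 days at 37° C with compound, top concentration 6 μM, 1:4 dilutions, 6 points, versus DMSO. Fixed cells stained for SDMA with DRAQ5 normalisation; 800/700 nm ratio after background subtraction fitted by non-linear regression for IC50.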

[3] = molecular target: MAT2A recombinant protein (Homo sapiens, UniProt P31153); experiment: MAT2A inhibitory activity (malachite green colorimetric enzyme assay); format: biochemical
Sequence of MAT2A recombinant protein (P31153 whole entry): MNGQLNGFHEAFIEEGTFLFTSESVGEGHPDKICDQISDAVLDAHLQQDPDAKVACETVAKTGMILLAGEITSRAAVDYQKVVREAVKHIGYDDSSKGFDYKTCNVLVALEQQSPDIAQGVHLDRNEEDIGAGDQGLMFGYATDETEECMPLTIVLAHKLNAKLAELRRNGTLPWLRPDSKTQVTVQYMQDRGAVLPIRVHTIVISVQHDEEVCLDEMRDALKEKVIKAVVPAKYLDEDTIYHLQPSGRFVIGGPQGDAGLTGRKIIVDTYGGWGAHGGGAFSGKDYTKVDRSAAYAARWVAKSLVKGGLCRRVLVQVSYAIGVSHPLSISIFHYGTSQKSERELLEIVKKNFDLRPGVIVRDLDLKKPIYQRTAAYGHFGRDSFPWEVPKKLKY
Method in brief: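 Recombinant human MAT2A with L-methionine and ATP in 50 mM HEPES pH 7.5, 50 mM KCl, 10 mM MgCl2, 10 mM DTT, 60 min at room temperature. Phosphate released detected by malachite green reagent (15 min) at 630 nm. Ten-point 1:3 series from 1000 nM final; IC50 by variable-slope non-linear regression.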

[4] = tested on: SDMA in HCT116-MTAP-knockout cell line; experiment: Cell symmetric dimethylarginine (SDMA) test, In-cell Western, HCT116-MTAP-knockout; format: cell-based; conditions: Homo sapiens, 96 h
DOHH-2 cell strain = experiment: Tumor cell proliferation inhibition assay (CellTiter-Glo), DOHH-2; format: cell-based; conditions: Homo sapiens, 120 h, DOHH-2 cells, 5-day treatment
Experimental: After the HCT116-MTAP-knockout (−/−) cell strain, the HCT116-MTAP wild-type(+/+)-cell strain, the DOHH-2 cell strain, or the Hut-78 cell strain was treated with the test compound for 5 days, the ATP level was measured using a CellTiter-Glo kit of Promega to evaluate the inhibition of the test compound against the growth of the tumor cell strain.
In the present application, the HCT116-MTAP-knockout (−/−) cell strain, the HCT116-MTAP wild-type (+/+)-cell strain, the DOHH-2 cell strain, or the Hut-78 cell strain was seeded into a 96-well cell culture plate at an appropriate cell density. After 24 h, the cells were treated using the test compounds diluted 1:3 fold at the highest concentration of 10 μM for 10 gradients, and a DMSO treatment group was set up separately. The cells were cultured in a 37° C./5% CO2 incubator for 5 days.

[5] = tested on: HCT116-MTAP wild-type (+/+)-cell strain; experiment: Tumor cell proliferation inhibition assay (CellTiter-Glo), HCT116-MTAP wild-type (+/+); format: cell-based; conditions: Homo sapiens, 120 h, 5-day treatment
Method in brief: (§1)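 Growth inhibition is evaluated from cellular ATP measured with CellTiter-Glo once cells have been treated for 5 days. Compounds are added 24 h after seeding as ten threefold dilutions starting at 10 μM, with a separate DMSO treatment group.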

[6] = tested on: HCT116-MTAP-knockout (−/−) cell strain; experiment: Tumor cell proliferation inhibition assay (CellTiter-Glo), HCT116-MTAP-knockout (-/-); format: cell-based; conditions: Homo sapiens, 120 h, 5-day treatment
Method in brief: as §1

Hut-78 cell strain = experiment: Tumor cell proliferation inhibition assay (CellTiter-Glo), Hut-78; format: cell-based; conditions: Homo sapiens, HuT78, 120 h, Hut-78 cells, 5-day treatment
Method in brief: as §1

[7] = Saturation solubility of samples in FaSSIF solution; format: physicochemical; conditions: FaSSIF pH 6.5, room temperature overnight
Experimental: About 0.21 g of sodium hydroxide, about 2.24 g of sodium dihydrogen phosphate dihydrate, and 3.09 g of sodium chloride were weighed out and dissolved in 500 mL of water, and then the pH was adjusted to 6.5 with 1 N sodium hydroxide or 1 N hydrochloric acid. 112 mg of FaSSIF solid was weighed out and placed in a 50 mL volumetric flask, and the above buffer was added for dissolution, diluted to volume, mixed well, and left to stand at room temperature for 2 h or more.
• Test sample: about 1 mg of the test sample was taken, and 1 mL of FaSSIF solution was added. The mixture was stirred at room temperature overnight and centrifuged, and the supernatant was collected and injected for analysis. • Control substance solution: about 1.5 mg of the test sample was precisely weighed out and placed in a 50 mL volumetric flask, and DMF was added for dissolution, diluted to volume, and mixed well.
• Mobile phase A: 1000 mL of purified water was accurately weighed out, 1 mL of formic acid was added, and the mixture was mixed well and degassed with ultrasonic. • Mobile phase B: acetonitrile
The peak of the main component of the control substance and the peak of the test substance consistent with the retention time of the peak of the main component of the control substance were integrated, and the concentration thereof in the FaSSIF solution was calculated according to external standard method.

hERG potassium current = molecular target: T1, hERG potassium current (Homo sapiens, UniProt Q12809); experiment: hERG inhibition test (whole-cell patch clamp, Qpatch); format: cell-based; conditions: initial concentration 30 μM, 6 concentration points
T1 construct: expressed in transfected cells; host or cells: HEK293, cultured under G418 selection
T1 sequence (Q12809 whole entry): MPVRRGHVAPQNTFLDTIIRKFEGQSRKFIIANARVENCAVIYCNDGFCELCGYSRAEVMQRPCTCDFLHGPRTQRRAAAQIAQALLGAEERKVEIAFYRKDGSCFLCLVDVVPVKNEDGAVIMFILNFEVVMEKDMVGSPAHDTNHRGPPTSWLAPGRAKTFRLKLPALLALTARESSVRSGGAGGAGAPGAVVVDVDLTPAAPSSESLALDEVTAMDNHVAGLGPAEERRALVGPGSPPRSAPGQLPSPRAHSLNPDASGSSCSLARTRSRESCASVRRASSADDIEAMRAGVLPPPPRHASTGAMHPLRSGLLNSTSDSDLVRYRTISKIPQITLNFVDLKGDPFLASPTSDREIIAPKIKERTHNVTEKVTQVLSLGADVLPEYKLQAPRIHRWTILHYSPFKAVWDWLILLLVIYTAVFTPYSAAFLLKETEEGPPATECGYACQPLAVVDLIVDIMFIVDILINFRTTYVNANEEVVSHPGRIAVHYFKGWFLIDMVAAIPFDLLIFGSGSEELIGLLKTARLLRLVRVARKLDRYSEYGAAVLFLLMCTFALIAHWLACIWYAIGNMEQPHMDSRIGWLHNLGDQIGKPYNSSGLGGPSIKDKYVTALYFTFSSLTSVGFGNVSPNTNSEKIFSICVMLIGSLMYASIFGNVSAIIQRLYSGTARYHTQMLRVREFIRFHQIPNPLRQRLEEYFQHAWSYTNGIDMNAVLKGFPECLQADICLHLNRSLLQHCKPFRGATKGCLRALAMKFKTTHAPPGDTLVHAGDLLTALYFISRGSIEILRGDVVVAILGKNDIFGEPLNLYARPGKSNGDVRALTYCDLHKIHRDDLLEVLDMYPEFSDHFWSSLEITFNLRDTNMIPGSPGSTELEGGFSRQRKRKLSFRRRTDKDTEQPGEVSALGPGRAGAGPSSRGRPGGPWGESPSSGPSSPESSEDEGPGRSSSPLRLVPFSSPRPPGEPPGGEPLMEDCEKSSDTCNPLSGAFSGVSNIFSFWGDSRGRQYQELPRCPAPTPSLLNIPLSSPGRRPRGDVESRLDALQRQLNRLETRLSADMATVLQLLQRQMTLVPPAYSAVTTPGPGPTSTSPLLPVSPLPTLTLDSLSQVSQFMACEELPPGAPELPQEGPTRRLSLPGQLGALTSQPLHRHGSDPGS
Experimental: The BEK293 cells were cultured in a DiVEM medium containing […] and 0.8 mg/mL G418 at 37° C. with 5% o CO2. The cells were digested by TrypLE™ Express and centrifuged. The cell density was adjusted to 2×10^6 cells/mL. The cells were gently mixed for 15-20 min using a shaker equilibrated at room temperature, and subjected to patch clamping on a machine. The medium of the prepared cells was replaced with extracellular fluid. The intracellular fluid and the extracellular fluid were taken from the fluid pool, and respectively added to the intracellular fluid pool and the cell and the test substance pool of the QPlate chip. The voltage stimulation of the whole-cell hERG potassium current was recorded by the whole-cell patch clamp, and the test data was collected and stored by Qpatch. The compound was diluted 3-fold at an initial concentration of 30 μM, and 6 concentration points were set, with each drug concentration being set for two administrations over a period of at least 5 min. The current detected in compound-free extracellular fluid for each cell was served as its own control group, and the detection was repeated at least twice independently using two cells per concentration. All electrophysiological experiments were performed at room temperature.
For data analysis, the current acted for each drug concentration and the current of the blank control were standardized
and then the inhibition rate corresponding to each drug concentration was calculated
The mean and standard error were calculated for each concentration, and the half maximal inhibitory concentration of each compound was calculated:
The dose-dependent effect was fitted non-linearly using the above equation, wherein Y represents the inhibition rate, C represents the concentration of the test substance, IC50 is the half maximal inhibitory concentration, and HillSlope represents the Hill coefficient. Curve fitting and calculation of IC50 were performed by Graphpad software.

[8] = Pharmacokinetic test in mice (IV and PO); format: in vivo; conditions: mouse, plasma, BALB/c mice; for half-life: read-out: T½ (converted)
[9] = IC50 score class, read-out: Cell 96 h SDMA Inhibition (HCT116-MTAP+/+) (score)
[10] = read-out: Cell 96 h SDMA inhibition (HCT116-MTAP+/+)
[11] = IC50 score class, read-out: MAT2A Inhibition (score)
[12] = IC50 score class, read-out: Cell 96 h SDMA Inhibition (HCT116-MTAP−/−) (score)
[13] = read-out: Cell 96 h SDMA Inhibition (HCT116-MTAP−/−)
[14] = IC50 score, read-out: Tumor cell 5-day relative growth inhibition (DOHH-2) (nM), score
[15] = HCT116-MTAP wild-type (+/+) cells, IC50 score, read-out: Tumor cell 5-day relative growth inhibition (HCT116-MTAP+/+) (nM), score
[16] = HCT116-MTAP wild-type (+/+) cells, IC50 value, read-out: Tumor cell 5-day relative growth inhibition (HCT116-MTAP+/+)
[17] = HCT116-MTAP-knockout (−/−) cells, IC50 score, read-out: Tumor cell 5-day relative growth inhibition (HCT116-MTAP−/−) (nM), score
[18] = HCT116-MTAP-knockout (−/−) cells, IC50 value, read-out: Tumor cell 5-day relative growth inhibition (HCT116-MTAP−/−)
[19] = IC50 value, read-out: Tumor cell 5-day relative growth inhibition (DOHH-2)
[20] = IC50 score, read-out: Tumor cell 5-day relative growth inhibition (Hut-78) (nM), score
[21] = IC50 value, read-out: Tumor cell 5-day relative growth inhibition (Hut-78)

Row | Compound | AUC ([1]; IV 1 mg/kg) [µM·h] | clearance ([1]; IV 1 mg/kg) [mL/min/kg] | bioavailability ([1]; IV 1 mg/kg, PO 5 mg/kg) [%] | half-life ([1]; IV 1 mg/kg) [min] | AUC ([1]; PO 5 mg/kg) [µM·h] | half-life ([1]; PO 5 mg/kg) [min] | IC50 [2, 9] [nM] | IC50 [2, 10] [nM] | IC50 [3, 11] [nM] | IC50 ([3]; read-out: MAT2A Inhibition) [nM] | IC50 [4, 12] [nM] | IC50 [4, 13] [nM] | IC50 (DOHH-2 cell strain; [14]) [nM] | IC50 [5, 15] [nM] | IC50 [5, 16] [nM] | IC50 [6, 17] [nM] | IC50 [6, 18] [nM] | IC50 (DOHH-2 cell strain; [19]) [nM] | also measured
1 | CCn1cc2c(n1)c(=O)n(-c1cccc(F)c1)c1cc(Cl)ccc21 [Compound B4] | 2.5 | 21.7 | 68 | 37.2 | 7.95 | 126 | > 3000 | 9300 | < 100 | 38.8 | 200 to 1000 | 782 | ≥ 2000 |  |  |  |  |  | 
2 | Cn1ccc(Cn2cc3c(n2)c(=O)n(-c2cccnc2)c2cc(Cl)ccc32)n1 [Compound B48] |  |  |  |  |  |  | > 3000 | 5140 | < 100 | 29.3 | < 200 | 63.5 | 500 to 2000 | 500 to 2000 | 1730 | < 500 | 119 | 880 | IC50 (Hut-78 cell strain; [20]): < 500 nM; IC50 (Hut-78 cell strain; [21]): 81.8 nM
3 | Cn1cc2c(n1)c(=O)n(-c1ccc(OC(F)F)cc1)c1nc(C(F)(F)F)ccc21 [Compound B188] |  |  |  |  |  |  |  |  | < 100 | 99.4 |  |  |  | ≥ 2000 | > 10000 | ≥ 2000 | > 10000 |  | FaSSIF (pH = 6.5) (μg/mL) [7]: 7.4 μg/mL
4 | O=c1c2n[nH]cc2c2cc(F)c(Cl)cc2n1-c1cccnc1C1CC1 [Compound B425] | 21 | 2 | 116 | 840 | 128 | 696 | > 3000 | > 10000 | < 100 | 6 | < 200 | 4.3 |  |  |  |  |  |  | IC50 ([5]; HCT116-MTAP+/+ cells, IC50 class score, read-out: Tumor cell 5-day relative growth inhibition (HCT116-MTAP+/+) (nM), score): ≥ 2000 nM; IC50 ([5]; HCT116-MTAP+/+ cells, read-out: Tumor cell 5-day relative growth inhibition (HCT116-MTAP+/+)): > 10000 nM; IC50 ([6]; HCT116-MTAP−/− cells, IC50 class score, read-out: Tumor cell 5-day relative growth inhibition (HCT116-MTAP−/−) (nM), score): < 500 nM; IC50 ([6]; HCT116-MTAP−/− cells, read-out: Tumor cell 5-day relative growth inhibition (HCT116-MTAP−/−)): 260 nM
5 | COc1ccc(Cn2cc3c(n2)c(=O)n(-c2cccnc2)c2cc(Cl)ccc32)cc1 [Compound B28] | 7.6 | 16 | 60 | 102 | 7.6 | 198 | 200 to 1000 | 342 |  |  | < 200 | 30.5 | < 500 | < 500 | 279 | < 500 | 75 | 444 | 
6 | O=c1c2nn(Cc3cccnc3)cc2c2ccc(Cl)cc2n1-c1cccnc1 [Compound B47] |  |  |  |  |  |  | > 3000 | 47000 | < 100 | 29.7 | < 200 | 154 | 500 to 2000 |  |  |  |  | 1670 | IC50 (Hut-78 cell strain; [20]): < 500 nM; IC50 (Hut-78 cell strain; [21]): 200 nM
7 | Cn1cc2c(n1)c(=O)n(-c1cccnc1)c1nc(C(F)(F)F)ccc21 [Compound B72] |  |  |  |  |  |  | 200 to 1000 | 480 |  |  | < 200 | 76.9 | 500 to 2000 | 500 to 2000 | 1680 | < 500 | 138 | 640 | IC50 (hERG potassium current): > 30 µM; AUC ([8]; IV 2 mg/kg): 7.43 µM·h; clearance ([8]; IV 2 mg/kg): 12.8 mL/min/kg; half-life ([8]; IV 2 mg/kg): 46.8 min; Vd ([8]; IV 2 mg/kg, read-out: Vz): 0.9 L/kg; AUC ([8]; PO 10 mg/kg): 65 µM·h; half-life ([8]; PO 10 mg/kg): 57 min
8 | CCn1cc2c(n1)c(=O)n(-c1cccnc1)c1cc(Cl)ccc21 [Compound B3] | 7.81 |  | 67 | 4.8 | 26 | 58.2 | > 3000 | 4280 |  |  | < 200 |  | 500 to 2000 |  |  | < 500 | 228 | 940 | 
